“Also recorded” adds a separate entry of the source.
What was measured:
[1] = test system: ferrets; settings: 390 mg zinc/kg of body weight per day as zinc oxide in the diet for 3-13 days; cited from earlier work
[2] = test system: humans; settings: cited from earlier work
[3] = test system: pAKT; assay: Phosphorylation of AKT in ACHN cells (Western blot); format: cell-based, human; settings: ZnCl2 for 4 hours
Text: (§1) Zn stimulated HIF1α in ACHN cells.

[4] = test system: HIF-1α; assay: HIF-1α protein expression in HK-2 cells (Western blot); format: cell-based, human; settings: 50 μM ZnCl2, Western blot, at 4 hours following exposure, vs controls
Text: (§2) Zn stimulated HIF1α in HK-2 cells.

[5] = test system: pAKT; assay: Phosphorylation of AKT in HK-2 cells (Western blot); format: cell-based, human; settings: ZnCl2 for 4 hours
Text: as §2

[6] = test system: HIF-2α; assay: HIF-2α protein expression in HK-2 cells (Western blot); format: cell-based, human; settings: 50 μM ZnCl2, Western blot, 4 hours
Text: as §2

[7] = Tolerability of intravenous ZnCl2 in sheep; format: in vivo; settings: 0.1 to 2 mg/kg of body weight i.v. at 24 hours and 4 hours prior to surgery; preliminary results
Procedure: (§3) Following the 4 hour injection, day 0 blood samples were taken.

[8] = test system: HIF-3α; assay: HIF-3α protein expression in HK-2 cells (Western blot); format: cell-based, human; settings: 50 μM ZnCl2, Western blot
Text: as §2

[9] = test system: HIF-3α; assay: HIF-3α protein expression in ACHN cells (Western blot); format: cell-based, human; settings: 50 μM ZnCl2, Western blot
Text: as §1

[10] = test system: HIF-1α; assay: HIF-1α protein expression in ACHN cells (Western blot); format: cell-based, human; settings: 50 μM ZnCl2, Western blot, at 4 hours following exposure, vs controls
Text: as §1

[11] = test system: sheep left ventricle myocardium; assay: Myocardial ischaemia-reperfusion in sheep (Evan's blue / TTC staining); format: in vivo
[12] = test system: HIF-2α; assay: HIF-2α protein expression in ACHN cells (Western blot); format: cell-based, human; settings: 50 μM ZnCl2, Western blot, 4 hours
Text: as §1

[13] = test system: sheep kidneys; assay: Renal ischaemia-reperfusion injury in sheep (unilateral nephrectomy, 60 min renal ischaemia); format: in vivo; settings: for ischaemic burden (area under curve, serum creatinine and serum urea): 0.5 mg/kg dosed at 24 hours and 4 hours pre-ischaemia, compared to controls and single 24 hr or 4 hr dosing; for inhibition of ischaemia-reperfusion injury, as measured by serum creatinine and urea levels / adverse effects of ischaemia-reperfusion in sheep kidneys (trend towards higher serum creatinine and urea levels): compared to controls
Procedure: as §3
Controls (n=4) received a unilateral nephrectomy and were administered saline at 24 hours and 4 hours prior to surgery.
Another group of sheep (n=1) received the Flavonoid based antioxidant (3′,4′ dihydroxyflavonol) at 6.6 mg/kg of body weight 1 hours prior to surgery.
Sheep were anaesthetised prior to surgery with intravenous sodium thiopentone (15 mg/kg) for endotracheal intubation (cuffed tube size 10). Maintenance of anaesthesia was carried out by means of oxygen/air/isoflurane (1.5-2.0%). Fractional inspired oxygen was altered to maintain PaO2 at approximately 100 mmHg, and ventilation was controlled to maintain PaCO2 at approximately 40 mmHg.
Following general anaesthesia, the right kidney was removed. A flow probe (4 mm) was implanted into the left kidney and the renal hilum (arteries and veins) supplying blood to the kidney were clamped using a vascular clamp for 60 minutes. […] General anaesthesia was then reversed and the sheep were allowed to recover. Renal blood flow was measured, blood samples were taken daily from the sheep over a 1-week period and the level of urea and creatinine was determined. Blood samples were collected into lithium heparin tubes (Microtainer, Becton-Dickinson). Blood samples were centrifuged and aliquots stored at −20° C. till analysis for creatinine and urea by the Clinical Trials Department, Austin Pathology, Heidelberg, Australia. Creatinine and urea in the blood serum samples were measured on a fully automated Roche Cobas 8000 c702 analyser. The kinetic colorimetric assay for creatinine determination is based on the Jaffé method. The kinetic colorimetric assay for urea is based on hydrolyzation of Urea to ammonium catalysed by urease followed by reaction of ammonium with 2-oxoglutarate in the presence of glutamate dehydrogenase and the coenzyme NADH. The rate of decrease in the NADH concentration is directly proportional to the urea concentration in the specimen and is measured photometrically.
As 0.5 mg/kg had been established as an effective dose to inhibit renal ischemia-reperfusion injury, the dosing experiments above were repeated to investigate the effect of multiple dosing. Sheep were subjected to uninephrectomy and 60 min of renal ischaemia followed by reperfusion. Serum creatinine and serum urea levels were measured before Zn pre-treatment (baseline), before ischaemia (Day 0) and for 7 days after reperfusion. […] Data are expressed as mean±SEM values (n=4, except 24 hr only group, n=1).

[14] = test system: HIF-1α; assay: HIF-1α protein expression in ZnCl2-perfused human kidney tissue (Western Blot)
Procedure: The blood supply to the excised tissue was provided by the renal artery into which the ZnCl2 solution was administered. In an initial study a 25% increase in HIF-1α expression in normal human kidney perfused with Zn compared to saline perfused tissue was observed.

[15] = test system: rats; settings: 191 mg zinc/kg/day as zinc acetate in drinking water for 3 months; cited from earlier work
[16] = test system: rats; settings: cited from earlier work
[17] = test system: mice; settings: cited from earlier work
[18] = 0.1 mg/kg of body weight i.v. at 24 hours and 4 hours prior to 60 min ischaemia
[19] = 0.5 mg/kg of body weight i.v. at 24 hours and 4 hours prior to 60 min ischaemia

Q: For `[O]=[Zn]` [zinc oxide], which “lethality (ferrets dead of ferrets dosed)” value [1] is on record?
A: Its value is 3 of 3.

Q: For zinc sulfate, which “outcome of zinc overdose” value ([2]; oral ingestion of zinc sulfate in large amounts (≥30,000 mg)) is on record?
A: Its value is “can result in death”.

Q: For zinc gluconate, which toxic effects ([2]; about 2,000-4,000 mg/day of zinc gluconate) is on record?
A: Its toxic effects is “anemia (consistent with zinc-induced copper deficiency), severe nephrosis, nausea, vomiting, dehydration, electrolyte imbalances, dizziness, lethargy and incoordination, epigastric pain and abdominal pain”.

Q: Which results are given for `[Cl-].[Cl-].[Zn+2]` [ZnCl2, zinc chloride]?
A: phosphorylation of AKT [3]: stimulated phosphorylation; HIF-1α protein expression [4]: increase; HIF-1α protein expression ([4]; listed as Zinc chloride): enhanced; HIF-1α protein expression ([4]; listed as Zn): stimulated; HIF-1α protein expression ([4]; listed as zinc): stimulates; phosphorylation of AKT [5]: stimulated phosphorylation; HIF-2α protein expression [6]: increase; HIF-2α protein expression ([6]; listed as zinc): stimulated; tolerability / adverse effects [7]: without any adverse effects; HIF-3α protein expression [8]: not; HIF-3α protein expression [9]: not; HIF-1α protein expression [10]: increase; HIF-1α protein expression ([10]; listed as Zinc chloride): enhanced; HIF-1α protein expression ([10]; listed as Zn): stimulated; HIF-1α protein expression ([10]; listed as zinc): stimulates; infarct in the area of myocardium at risk ([11]; dual doses of 0.5 mg/kg ZnCl2 at 24 hours and 4 hours prior to 1 hour ischemia and 3 hour reperfusion): no histological signs of an infarct; white (infarcted) areas after TTC staining of left ventricle rings ([11]; dual doses of 0.5 mg/kg ZnCl2 at 24 hours and 4 hours prior to myocardial ischaemia, compared to untreated sheep, 0.5 mg/kg): very little white staining; also recorded: Absence of white areas; HIF-2α protein expression [12]: increase; HIF-2α protein expression ([12]; listed as zinc): stimulated; serum creatinine levels when compared to controls [13, 18]: marked reduction; serum urea levels when compared to controls [13, 18]: marked reduction; ischaemic burden (area under curve, serum creatinine and serum urea) [13]: significantly (p<0.05) reduced; ischaemic burden (area under curve, serum creatinine and serum urea) ([13]; listed as zinc): reduced significantly; serum creatinine levels when compared to controls [13, 19]: marked reduction; serum urea levels when compared to controls [13, 19]: marked reduction; reduction of ischaemic burden (AUC values for serum creatinine and serum urea) ([13]; 0.5 mg/kg zinc, compared to control animals): ~70%; inhibition of ischaemia-reperfusion injury, as measured by serum creatinine and urea levels ([13]; 1.0 mg/kg of body weight): failed to inhibit; inhibition of ischaemia-reperfusion injury, as measured by serum creatinine and urea levels ([13]; 2.5 mg/kg of body weight): failed to inhibit; adverse effects of ischaemia-reperfusion in sheep kidneys (trend towards higher serum creatinine and urea levels) ([13]; 2.5 mg/kg of body weight, listed as ZnCl): appeared to worsen; adverse effects of ischaemia-reperfusion in sheep kidneys (trend towards higher serum creatinine and urea levels) ([13]; 2.5 mg/kg of body weight, listed as zinc): worsened renal function; inhibition of ischaemia-reperfusion injury, as measured by serum creatinine and urea levels ([13]; 10.0 mg/kg of body weight): failed to inhibit; adverse effects of ischaemia-reperfusion in sheep kidneys (trend towards higher serum creatinine and urea levels) ([13]; 10.0 mg/kg of body weight, listed as ZnCl): appeared to worsen; adverse effects of ischaemia-reperfusion in sheep kidneys (trend towards higher serum creatinine and urea levels) ([13]; 10.0 mg/kg of body weight, listed as zinc): worsened renal function; renal function following ischaemia-reperfusion injury, as determined by serum creatinine and serum urea levels ([13]; greater than or equal to 1 mg/kg of body weight, intravascular): did not improve renal function; creatinine rise over time ([13]; two doses of 0.5 mg/kg at 24 and 4 hr prior to ischaemia, compared to single dose at either 24 hr or 4 hr, p<0.05, 0.5 mg/kg): significantly (p<0.05) reduced; increase in HIF-1α expression ([14]; 50 μM ZnCl2 perfused via segmental renal artery, compared to saline perfused tissue, initial study): 25%; HIF-1α protein expression in human kidney tissue ([14]; zinc chloride preconditioning (50 μM perfusion), Western Blot): enhanced

Q: For `CC(=O)[O-].CC(=O)[O-].[Zn+2]` [zinc acetate], which mortality [15] is on record?
A: The mortality was “Mortality has also been observed”.

Q: And the “relative lethality (LD50 ranking)” value [16]?
A: The value was “most lethal compound tested”.

Q: And the “relative lethality (LD50 ranking)” value [17]?
A: Its value is “most lethal compound”.

Q: For `O=c1c(O)c(-c2ccc(O)c(O)c2)oc2ccccc12` [antioxidant, 3′,4′ dihydroxyflavonol, reference compound], which “decrease of ischaemic burden (AUC values for serum creatinine and serum urea)” value ([13]; antioxidant 6.6 mg/kg of body weight 1 hours prior to surgery (n=1)) is on record?
A: Its value is 50%.
